The values that follow come from US20090298903A1, “USE OF TETRAMIC ACID DERIVATIVES FOR INSECT CONTROL” (priority 2006, published 2009).

Common to all, as to type: in vivo
One test relates to Dalbulus maidis. Description: Example 13: dwarf beans against Dalbulus maidis. The settings on record: nymphs on leaves, all 96 g a.s./ha; for Efficacy (% Abbott) 7 d: 7 d after second treatment, 240 SC + 0.1% rapeseed oil methyl ester, Imidacloprid 200 SL; for Efficacy (% Abbott) 11 d: 11 d after second treatment. How it is done:
Plots approx. 10 m^2 in size which are planted with dwarf beans cv. “Carioquinha” are treated, in three replications, against Dalbulus maidis. The application is carried out with a knapsack sprayer which is operated with pressurized air. Here, the active substances Example (I-4) (240 SC) and Example (I-9) (240 SC), in a tank mix with 0.1% a.s. rapeseed oil methyl ester (500 EW) and the commercial standard Imidacloprid (200 SL), are applied at the specified application rates. Two applications are carried out at an interval of 7 days, using a water application rate of 300 l/ha.
The test is evaluated 7 and 11 days after the second treatment by scoring the destruction rate of the animals (nymphs) on the leaves.

For test [1], the system named is Leptinotarsa decemlineata. Put plainly: Example 23: potatoes against Leptinotarsa decemlineata. The procedure: Plots approx. 10 m^2 in size which are planted with potatoes “Quarta” are treated, in three replications, against Leptinotarsa decemlineata. The application is carried out with a knapsack sprayer operated with pressurized air. Here, the active substance Example (I-4) (240 SC), in a tank mix together with 0.2% a.s. rapeseed oil methyl ester (500 EW) and the commercial standard Deltamethrin (100 EC), is tested at the specified application rate. The water application rate is 300 l/ha.
The test is evaluated 3, 8 and 20 days after the treatment by scoring the destruction rate of the animals (larvae) on the plants.

A further test relates to Empoasca biguttula. Put plainly: Example 16: aubergines against Empoasca biguttula. The settings on record: for Efficacy (% Abott) 2 d: 2 d after first treatment, nymphs, Imidacloprid (SL 100) 30, (I-4) (150 OD) 50, Profenofos (500 EC) 500 g a.s./ha, two applications, interval 7 days; for Efficacy (% Abott) 6 d: 6 d after first treatment; for Efficacy (% Abott) 6 d / Efficacy (% Abott) 13 d: Imidacloprid 30, (I-4) 50, Profenofos 500 g a.s./ha; for Efficacy (% Abott) 13 d: 13 d after first treatment. The procedure:
Plots 10 m^2 in size which are planted with aubergines are treated, in three replications, against Empoasca biguttula. The application is carried out with a knapsack sprayer which is operated with pressurized air. Here, the active substance Example (I-4) (150 OD) is tested against the commercial standards Imidacloprid (SL 100) and Profenofos (500 EC) at the specified application rates. Two applications are carried out at an interval of 7 days. The water application rate is 750 l/ha.
The test is evaluated 2, 6 and 13 days after the first treatment by scoring the destruction rates of the animals (nymphs) on the plants.

The subject of test [2] is flea beetles (Phyllotreta sp.). Description: Example 24: aubergines against flea beetles. The settings on record: 7 d after the last of four treatments, larvae, Imidacloprid (100 SL) 100, (I-4) (100 OD) 70, Profenofos (500 EC) 500 g a.s./ha. How it is done: Plots approx. 12 m^2 in size which are planted with aubergines cv. “DLP” are treated, in three replications, against flea beetles (Phyllotreta sp.). The application is carried out with a knapsack sprayer which is operated with pressurized air. Here, the active substance Example (I-4) (100 OD) and the commercial standards Imidacloprid (100 SL) and Profenofos (500 EC) are applied at the specified application rates. Four applications are carried out at intervals of 7, 8 and 10 days, with a water application rate of 750 l/ha.
The test is evaluated 7 days after the last treatment by scoring the destruction rate of the larvae on the plants.

In a further test the test system is Phyllocnistis citrella. Description: Example 27: orange trees against Phyllocnistis citrella. The settings on record: larvae on shoots; for Efficacy (% Abbott) 7 d: 7 d after treatment, Imidacloprid (192 SC) 140, (I-4) (150 OD) 132 g a.s./ha; for Efficacy (% Abbott) 14 d: 14 d after treatment, Imidacloprid 140, (I-4) 132 g a.s./ha. The procedure:
Small orange trees on plots approximately 30 m^2 in size are treated, in four replications, against Phyllocnistis citrella. The application is carried out with a motor-operated knapsack sprayer. Here, the active substance Example (I-4) (150 OD) is tested against the commercial standard Imidacloprid (192 SC) at the specified rates. The water application rate is 935 l/ha.
The test is evaluated 7 and 14 days after the treatment by scoring the destruction rates of the larvae on the shoots in percent.

The subject of another test is Thrips palmi. Put plainly: Example 7: aubergines against Thrips palmi. The settings on record: for Efficacy (% Abbott) 7 d: 7 d after the second application, 20 leaves, Imidacloprid (100 SL) 0.0151 % a.s., (I-4) (+ 0.2% rapeseed oil methyl ester) 0.0096 % a.s.; for Efficacy (% Abbott) 13 d: 13 d after the second application; for Efficacy (% Abbott) 13 d / Efficacy (% Abbott) 21 d: Imidacloprid 0.0151 % a.s., (I-4) 0.0096 % a.s.; for Efficacy (% Abbott) 21 d: 21 d after the second application. The procedure: Plots approximately 16.5 m^2 in size which are planted with aubergines are treated, in three replications, against Thrips palmi. Here, the active substance Example (I-4) and the commercial standard Imidacloprid (100 SL) is applied at the specified application rates, using a knapsack sprayer which is operated with compressed air. The water application rate is 750 l/ha. In the case of Example (I-4), 0.2% a.s. rapeseed oil methyl ester (500 EW) is added to the spray mixture. Three applications are carried out at intervals of 7 and 14 days, respectively.
The destruction rate in percent is determined on in each case 20 leaves. The following results are obtained 7, 13 and 21 days after the second application: […]

The subject of test [3] is olive fruit fly (Dacus oleae). Put plainly: Example 22B: laboratory experiment, olives against olive fruit fly. The settings on record: olives treated three days after oviposition; Imidacloprid (200 SL) 0.01 %, (I-4) (100 OD) 0.02 %, Fenthion (500 EC) 0.05 %; untreated 84.4. The procedure:
In a laboratory experiment, 40 olives are treated, in four replications, against the olive fruit fly (Dacus oleae) three days after oviposition. Here, the active substance (I-4) (100 OD) and the commercial standards Fenthion (500 EC) and Imidacloprid (200 SL) are tested at the specified application rates.
The test is evaluated 14 days after oviposition by counting the number of feeding tunnels (larval development completed), while the absence of such feeding tunnels indicates the efficacy against the larvae.

Take `CCOC(=O)OC1=C(c2cc(C)ccc2C)C(=O)N[C@]12CC[C@@H](OC)CC2` [Example (I-4)]: in the test with Dalbulus maidis, the “Efficacy (% Abbott) 7 d” value worked out at 73 % Abbott and the “Efficacy (% Abbott) 11 d” value was 69 % Abbott. For the same molecule, the “Efficacy (% Abbott) 3 d” value in test [1] (3 d after treatment, larvae, Deltamethrin (100 EC) 75, (I-4) (240 SC + 0.2% rapeseed oil methyl ester) 72 g a.s./ha) is given as 53.3 % Abbott. In test [1] (8 d after treatment, Deltamethrin 75, (I-4) 72 g a.s./ha), the “Efficacy (% Abbott) 8 d” value came to 72.7 % Abbott. Moreover, the “Efficacy (% Abbott) 20 d” value in test [1] (20 d after treatment, Deltamethrin 75, (I-4) 72 g a.s./ha) is recorded as 84.4 % Abbott. In the test on Empoasca biguttula, the “Efficacy (% Abott) 2 d” value came to 52.4 % Abott, the “Efficacy (% Abott) 6 d” value is given as 56.0 % Abott and the “Efficacy (% Abott) 13 d” value stood at 66.7 % Abott. Also, the “Efficacy (% Abbott) 7 d” value in test [2] was determined as 89 % Abbott. Further, in the test on Phyllocnistis citrella, the “Efficacy (% Abbott) 7 d” value is given as 97.9 % Abbott and the “Efficacy (% Abbott) 14 d” value was found to be 68.2 % Abbott. Also, in the test with Thrips palmi, the “Efficacy (% Abbott) 7 d” value was determined as 84 % Abbott, the “Efficacy (% Abbott) 13 d” value is reported as 88 % Abbott and the “Efficacy (% Abbott) 21 d” value was 78 % Abbott. The “Number of feeding tunnels (%) 14 days after oviposition” value in test [3] is given as 3.1%.
For `O=[N+]([O-])NC1=NCCN1Cc1ccc(Cl)nc1` [Imidacloprid], in the test with Dalbulus maidis, the “Efficacy (% Abbott) 7 d” value was found to be 82 % Abbott and the “Efficacy (% Abbott) 11 d” value was 74 % Abbott. Moreover, in the test with Empoasca biguttula, the “Efficacy (% Abott) 2 d” value worked out at 38.1 % Abott, the “Efficacy (% Abott) 6 d” value is recorded as 71.6 % Abott and the “Efficacy (% Abott) 13 d” value came to 58.7 % Abott. The “Efficacy (% Abbott) 7 d” value in test [2] came out at 98 % Abbott. In the test with Phyllocnistis citrella, the “Efficacy (% Abbott) 7 d” value is reported as 91.7 % Abbott and the “Efficacy (% Abbott) 14 d” value is recorded as 52.3 % Abbott. Further, in the test on Thrips palmi, the “Efficacy (% Abbott) 7 d” value stood at 72 % Abbott, the “Efficacy (% Abbott) 13 d” value is given as 68 % Abbott and the “Efficacy (% Abbott) 21 d” value is 24 % Abbott. Besides, the “Number of feeding tunnels (%) 14 days after oviposition” value in test [3] is 11.9%.
